The target in the assay is T1, EHMT2 (Homo sapiens, UniProt Q96KQ7).
T1 construct: host or cells: MDA-MB-231
T1 sequence (Q96KQ7 1-1210): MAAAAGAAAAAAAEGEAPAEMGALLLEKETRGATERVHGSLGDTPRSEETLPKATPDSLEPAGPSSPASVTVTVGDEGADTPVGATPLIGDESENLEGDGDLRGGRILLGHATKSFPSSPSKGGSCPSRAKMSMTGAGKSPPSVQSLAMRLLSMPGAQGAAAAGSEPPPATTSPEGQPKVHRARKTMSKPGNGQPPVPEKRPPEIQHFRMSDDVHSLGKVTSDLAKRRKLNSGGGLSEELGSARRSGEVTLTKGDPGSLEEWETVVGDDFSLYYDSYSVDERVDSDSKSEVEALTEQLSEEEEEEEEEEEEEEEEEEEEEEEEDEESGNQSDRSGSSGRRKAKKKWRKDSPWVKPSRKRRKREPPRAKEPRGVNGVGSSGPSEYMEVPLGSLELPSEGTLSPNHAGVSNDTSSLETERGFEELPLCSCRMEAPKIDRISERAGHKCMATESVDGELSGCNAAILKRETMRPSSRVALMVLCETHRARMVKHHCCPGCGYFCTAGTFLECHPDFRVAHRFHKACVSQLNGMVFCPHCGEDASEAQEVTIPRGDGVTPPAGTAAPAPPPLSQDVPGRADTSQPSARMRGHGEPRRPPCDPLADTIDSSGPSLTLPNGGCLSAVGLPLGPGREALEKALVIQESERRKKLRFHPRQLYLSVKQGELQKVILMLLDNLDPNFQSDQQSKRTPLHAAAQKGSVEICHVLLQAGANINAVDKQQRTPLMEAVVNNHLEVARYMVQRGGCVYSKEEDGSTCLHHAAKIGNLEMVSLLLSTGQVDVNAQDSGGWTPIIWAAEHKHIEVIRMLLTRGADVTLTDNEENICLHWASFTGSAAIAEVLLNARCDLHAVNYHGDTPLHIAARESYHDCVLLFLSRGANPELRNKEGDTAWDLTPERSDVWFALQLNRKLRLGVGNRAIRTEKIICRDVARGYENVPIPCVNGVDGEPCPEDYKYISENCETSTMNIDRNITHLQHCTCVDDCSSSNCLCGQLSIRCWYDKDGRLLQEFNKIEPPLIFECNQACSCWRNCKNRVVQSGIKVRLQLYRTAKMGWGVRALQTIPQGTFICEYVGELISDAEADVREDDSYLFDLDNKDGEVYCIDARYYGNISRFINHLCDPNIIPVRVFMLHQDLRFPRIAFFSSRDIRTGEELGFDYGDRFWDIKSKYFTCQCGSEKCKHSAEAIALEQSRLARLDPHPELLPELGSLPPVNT
Put plainly: MDA-MB-231 H3K9me2 in-cell Western assay (EHMT2 ICW). It counts as cell-based. Particulars: Table VI; read-out: EHMT2 ICW IC50. A digest of the protocol: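 Steps: compound added to plate, MDA-MB-231 cells plated in RPMI with 10% FBS, incubation for 48 h at 37 °C, fixation, overnight anti-H3K9me2 staining at 4 °C, and donkey anti-mouse 800CW with DRAQ5 counterstain. IC50 values come from percent inhibition fitted with a four-parameter model.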

The term IC50 denotes the concentration that gives 50% inhibition.

As to `CNc1cc(C)c2cc(OC)c(OC[C@H](O)CN3CCC3)cc2n1` [Compound 1028], the IC50 fell in the range of 100 to 1000 nM.

With `COc1cc2c(C3CCN(C)CC3)cc(C)nc2cc1OCCCN1CC[C@H](F)C1` [Compound 741], the IC50 is 1000 to 10000 nM.

Take `COc1cc2c(C)cc(N3CCNCC3)nc2cc1OCCCN1CCCC1` [Compound 738]: the IC50 was in the range of 1000 to 10000 nM.

As to `CNc1cc(C)nc(Nc2ccc(OC)c(CNCCN3CCCC3)c2)n1` [Compound 644, 2-N-[4-methoxy-3-([[2-(pyrrolidin-1-yl)ethyl]amino]methyl)phenyl]-4-N,6-dimethylpyrimidine-2,4-diamine], the half-inhibitory concentration (IC50) fell in the range of 100 to 1000 nM.

As for `CNc1nc(C2CCCN(C)C2)c2cc(OC)c(OCCCN3CCCC3)cc2n1` (stereo not drawn) [Compound 746], the IC50 is over 10000 nM.

In the case of `CCc1cc(NC)nc(Nc2ccc(OC)c(OC[C@@H]3CCN(CC)C3)c2)n1` [Compound 671], the IC50 was in the range of 100 to 1000 nM.

Regarding `COc1cc(N(C)C2CCN(C)CC2)ncc1OCC1CCNC1` (stereo not drawn) [Compound 1042], the IC50 was over 10000 nM.

Turning to `COc1cc(N(C)C2CCNCC2)ncc1OCC1CCN(C)C1` (stereo not drawn) [Compound 635], the IC50 was over 10000 nM.

As for `CC(C)N1CC(COc2cnc(NC3CCNCC3)nc2)C1` [Compound 636], the IC50 is over 10000 nM.

As for `COc1cc2c(C3CCOCC3)cc(-c3cn[nH]c3)nc2cc1OCCCN1CCCC1` [Compound 679], the 50% inhibitory concentration (IC50) lay within 1000 to 10000 nM.

As for `CNCCNCc1cc(Nc2nccc(NC)n2)ccc1OC` [Compound 1034], the IC50 was in the range of 1000 to 10000 nM.

Consider `CNc1ccnc(Nc2ccc(OC)c(CNC[C@H]3CCCN3)c2)n1` [Compound 1020], for which the IC50 is over 10000 nM.

As to `CNc1cc(C)nc(Nc2cnc(OC)c(CNCCN3CCCC3)c2)n1` [Compound 1031], the IC50 lay in the range of 100 to 1000 nM.

In the case of `CCN1CCC(NCc2cc(Nc3nc(C)cc(NC)n3)ccc2OC)C1` (stereo not drawn) [Compound 646], the IC50 was in the range of 1000 to 10000 nM.

On to `COc1cnc(Nc2cccc3[nH]ncc23)nc1OCCCN1CCCC1` [Compound 655], for which the IC50 was over 10000 nM.

The record behind these values is patent US20210198277A1, “AMINE-SUBSTITUTED ARYL OR HETEROARYL COMPOUNDS” (Epizyme, Inc., priority 2016, published 2021).
